According to US20240025857A1, “NEW CATECHOLAMINE PRODRUGS FOR USE IN THE TREATMENT OF PARKINSON'S DISEASE” (H. Lundbeck A/S, priority 2020, published 2024):
Converted amounts (≈) assume the structure as drawn. Structures can show the parent of a compound that is named as a salt.

Tests used:
[1] = PK experiments in rats: plasma compound (I) after oral dosing of prodrug; details: for conversion to compound (I) in vivo: oral dosing, rats, Example 2
Experimental: (§1) The tubes were inverted gently 6-8 times to ensure thorough mixing and then placed in wet ice. The collecting tube was placed in wet ice for up to 30 minutes until centrifugation (3000 G for 10 minutes at 4° C.). Once removed from the wet ice the centrifugation was initiated immediately. Immediately after end of centrifugation the samples were returned to wet ice. Two sub-samples of 130 microL plasma were transferred to each of two appropriately labelled cryo tubes containing 6.5 microL pre-cooled formic acid (20% in water v/v) The tube lid was immediately replaced, and the plasma solution was thoroughly mixed by inverting gently 6-8 times. The plasma samples were placed on water-ice as far as possible and stored frozen at nominally −70° C. within 60 minutes after sampling.
(§2) For experiments relating to compounds (II) and (III), the above protocol was used, with the exception that K3EDTA tubes were prepared with stabilizing aqueous solution consisting of 80 microL 100 mg/mL ascorbic acid and 40 microL inhibitor solution containing 100 mg/mL citric acid, 21 mg/mL D-saccharic acid 1,4 lactone and 29 mg/mL tris-(2-carboxyethyl)phosphine (TCEP).
(§3) Plasma samples were analyzed by solid phase extraction or direct protein precipitation followed by UPLC-MS/MS. MS detection using electrospray in the positive ion mode with monitoring of specific mass-to-charge transitions for compound (I) using internal standards for correcting the response. The concentration-time data was analyzed, using standard software using appropriate noncompartmental techniques to obtain estimates of the derived PK parameters.
(§4) Han Wistar rats were supplied by Charles River Laboratories, Sulzfeld, Germany. An artificial, automatically controlled, light and dark cycle of 12 hours was maintained. The rats received a standard laboratory diet from Brogaarden (Altromin 1324 pellets). The rats had unrestricted access to the diet.
(§5) Han Wistar rats were supplied by Charles River Laboratories, UK. An artificial, automatically controlled, light and dark cycle of 12 hours was maintained. The rats received a standard laboratory diet (Teklad 2014C Diet). The rats had unrestricted access to the diet.

[2] = in man after oral dosing; extensive hepatic first-pass metabolism; cited from earlier work
[3] = Conversion to compound (I) in human liver S9; assay type: in vitro ADME; details: 1 μM, 4 mg/mL protein, 37° C., 0-60 minutes; compared to (Id-iia) and (Id-iib); FIG. 3
Experimental: The compounds (II), (III), (Id-iia), and (Id-iib) were incubated separately at 1 μM with rat and human liver S9 fraction suspended in 50 mM phosphate buffer at pH 7.4 with 5 mM MgCl2, 200 U/mL superoxide dismutase and 1 mM ascorbic acid. The human liver S9 (pool from 50 donors) and the rat liver S9 (from Wistar Han rats, pool of 240) fractions were purchased from SekisuiXenoTech, USA. The protein concentration in the incubation was 4 mg/mL. The incubations were performed in 96-well plates at 37° C. using an automated Hamilton liquid handling system with a total incubation volume of 150 microliter per well. The compounds were each incubated in triplicates in three wells per time point. The liver S9 suspensions were pre-incubated at 37° C. and the reactions started by addition of stock solutions of the test compounds to the incubation wells. The test compounds were dissolved in dimethyl sulfoxide (DMSO) and further diluted in water before spiking the stock solution into the incubation wells. […] Concentrations of compound (I) were determined after solid-phase extraction of the samples followed by LC-MS/MS analysis. The increase in concentration of compound (I) at the different time points was calculated by subtracting the concentration of compound (I) in the sample taken at time 0 from the concentrations of compound (I) in samples taken at the different time points. […]

[4] = assay type: in vitro ADME, Wistar Han rats; details: 1 μM, 4 mg/mL protein, 37° C., 0-60 minutes; FIG. 4
Experimental: The human liver S9 (pool from 50 donors) and the rat liver S9 (from Wistar Han rats, pool of 240) fractions were purchased from SekisuiXenoTech, USA. The protein concentration in the incubation was 4 mg/mL. The incubations were performed in 96-well plates at 37° C. using an automated Hamilton liquid handling system with a total incubation volume of 150 microliter per well. The compounds were each incubated in triplicates in three wells per time point. The liver S9 suspensions were pre-incubated at 37° C. and the reactions started by addition of stock solutions of the test compounds to the incubation wells. The test compounds were dissolved in dimethyl sulfoxide (DMSO) and further diluted in water before spiking the stock solution into the incubation wells. The final DMSO concentration in the incubations was 0.1%. The test compounds were incubated with liver S9 fractions for 0, 5, 10, 15, 30, 45 and 60 minutes. The incubations were terminated by transferring 100 microliter of the incubation samples to a 96-well plate containing 100 microliter of cold (approximately +4° C.) stop reagent containing 2% formic acid, 20 mg/mL ascorbic acid, 10 mg/mL citric acid and 3 mg/mL TCEP (tris(2-carboxyethyl)phosphine). After mixing, the samples were transferred to Nunc 1.0 mL cryo tubes and immediately frozen at −80° C. until analysis. Concentrations of compound (I) were determined after solid-phase extraction of the samples followed by LC-MS/MS analysis. The increase in concentration of compound (I) at the different time points was calculated by subtracting the concentration of compound (I) in the sample taken at time 0 from the concentrations of compound (I) in samples taken at the different time points.
Mass spectrometer (LC-MS/MS) Waters Acquity-Waters Xevo TQ-S. Analytical column Acquity BEH C18 50×2.1 mm, 1.7 micrometer. Mobile phase A: 0.2% formic acid in 20 mM NH4-Formate. Mobile phase B: 0.2% formic acid in acetonitrile. Gradient run from 5% B to 95% B in 3.5 minutes. Flow rate 0.6 mL/min. […]

physchem = assay type: physicochemical; details: aqueous buffer, thermodynamic from solid; 25 mM phosphate buffer pH 6, 24 hours rotation, saturated solution; read-out: Measured solubility at pH 6
Experimental: For compound (III), a sample was prepared with excess compound (III) to establish a saturated solution. 4.2 mg of compound (III) was transferred to a vial and 0.5 mL buffer (25 mM phosphate buffer, NaH2PO4/Na2HPO4, pH 6) was added. The sample was mixed by rotation for 24 hours. pH of the sample was measured at t=0 (prior to rotation) and at t=24 h (after 24 h of rotation). Subsequently, some of the sample was filtered with 0.22 micrometer polyvinylidene difluoride filter, first few drops discarded, and content of dissolved compound (III) was quantified by reverse phased HPLC (C18, 3.5 micrometer, 4.6×150 mm column) with eluent 20 mM ammonium buffer pH 2.4 with methanol, 80:20.
The remaining undissolved material was extracted, and air dried for approximately 20 minutes on a metal plate prior to analysis by X-ray powder diffractogram (XRPD). XRPD diffractograms were obtained on a PANalytical X'Pert PRO X-Ray Diffractometer using CuKa1 radiation (λ=1.5406 Å). The samples were measured in reflection mode in the 2θ-range 3-39.9° using an X'celerator detector.

[5] = male, Han Wistar, rat, in vivo, po
Experimental: as §1, §2, §3, §4, §5

CCCN1CCC[C@@H]2Cc3c(ccc(OC(=O)C(C)(C)C)c3OC(=O)C(C)(C)C)C[C@H]21 [(Ic)]
plasma concentrations of compound (I) ([1]; oral administration of the prodrug, Wistar rats, in words): extremely low

CCCc1cc2c(s1)CN[C@@H]1CCc3cc(OC(C)=O)c(OC(C)=O)cc3[C@@H]21 [Adrogolide]
oral bioavailability [2]: ~4%

CCCN1CCC[C@@H]2Cc3c(ccc(OS(N)(=O)=O)c3O)C[C@H]21 [Compound (II), (4aR,10aR)-6-hydroxy-1-propyl-1,2,3,4,4a,5,10,10a-octahydrobenzo[g]quinolin-7-yl sulfamate]
conversion to compound (I) in human liver S9 fraction [3]: increased conversion to compound (I) | conversion to compound (I) in rat liver S9 [4]: is converted to compound (I) | conversion to compound (I) in vivo [1]: converted to compound (I) in vivo

CCCN1CCC[C@@H]2Cc3c(ccc(O)c3OS(N)(=O)=O)C[C@H]21 [Compound (III), (4aR,10aR)-7-hydroxy-1-propyl-1,2,3,4,4a,5,10,10a-octahydrobenzo[g]quinolin-6-yl sulfamate]
solubility at 24 h (physchem): 890 µg/mL (≈ 2610 µM) | conversion to compound (I) in human liver S9 fraction [3]: increased conversion to compound (I) | conversion to compound (I) in rat liver S9 [4]: is converted to compound (I) | conversion to compound (I) in vivo [1]: converted to compound (I) in vivo

CCCN1CCC[C@@H]2CC3=C(CCCC3=O)C[C@H]21 [Compound (Ia)]
AUC0-24 [5]: 13.6 ng·h/mL | Cmax [5]: 3.16 ng/mL | Tmax ([5]; 0.3 mg/kg): 1.0 h | Exposure at 24 h ([5]; 24 h): 48 ± 26 pg/mL

CCCN1CCC[C@@H]2Cc3c(ccc(OS(=O)(=O)O)c3O)C[C@H]21 [Compound (Id-iib), (4aR,10aR)-6-hydroxy-1-propyl-1,2,3,4,4a,5,10,10a-octahydrobenzo[g]quinolin-7-yl hydrogen sulfate]
solubility at 24 h (physchem): 37 µg/mL | conversion to compound (I) in rat liver S9 [4]: is converted to compound (I)
